A value given as a limit tells only on which side of the number the result lay.

Consider nine compounds from patent publication US10226453B2, “3-(1H-indol-2-yl)-1H-pyrazolo[4,3-B]pyridines and therapeutic uses thereof” (Samumed, LLC, priority 2015, dated 2019).

What all share (format): cell-based
Assay [1] concerns Wnt activity (Sp5-Luc reporter, SW480 colon carcinoma cells). Kind of assay: Wnt activity screening assay: Sp5-Luc reporter gene in SW480 colon carcinoma cells. Particulars: Homo sapiens; for EC50: overnight incubation, 10-point curve from 10 μM; for inhibition at 10 µM: given where EC50 >10 μM, read-out: percent inhibition at 10 μM. The text has this: The screening assay for Wnt activity is described as follows. Reporter cell lines can be generated by stably transducing cancer cell lines (e.g., colon cancer) or primary cells (e.g., IEC-6 intestinal cells) with a lentiviral construct that includes a Wnt-responsive promoter driving expression of the firefly luciferase gene.
SW480 colon carcinoma cells were transduced with a lentiviral vector expressing luciferase with a human Sp5 promoter consisting of a sequence of eight TCF/LEF binding sites. SW480 cells stably expressing the Sp5-Luc reporter gene and a hygromycin resistance gene were selected by treatment with 150 μg/mL of hygromycin for 7 days. These stably transduced SW480 cells were expanded in cell culture and used for all further screening activities. Each compound was dissolved in DMSO as a 10 mM stock and used to prepare compound source plates. Serial dilution (1:3, 10-point dose-response curves starting from 10 μM) and compound transfer was performed using the ECHO 550 (Labcyte, Sunnyvale, Calif.) into 384-well white solid bottom assay plates (Greiner Bio-One) with appropriate DMSO backfill for a final DMSO concentration of 0.1%. For Sp5-Luc reporter gene assays, the cells were plated at 4,000 cells/well in 384-well plates with medium containing 1% fetal bovine serum and incubated overnight at 37° C. and 5% CO2. Following incubation, 20 μl of BrightGlo luminescence reagent (Promega) was added to each well of the 384-well assay plates. The plates were placed on an orbital shaker for 2 min and then luminescence was quantified using the Envision (Perkin Elmer) plate reader. Readings were normalized to DMSO only treated cells, and normalized activities were utilized for EC50 calculations using the dose-response log (inhibitor) vs. response-variable slope (four parameters) nonlinear regression feature available in GraphPad Prism 5.0 (or Dotmatics). For EC50 of >10 μM, the percent inhibition at 10 μM is provided.

The test system of assay [2] is SW480 colon cancer cells. As to the kind of experiment: Cell viability assay (CellTiter-Blue), SW480 colon cancer cells. Particulars: Homo sapiens, 96 h, four days, CellTiter-Blue. The procedure: Representative compounds were screened using the following assay procedure to assess the effect on cell viability as described below.
Each compound was dissolved in DMSO as a 10 mM stock and used to prepare compound source plates. Serial dilution (1:3, 8-point dose-response curves from 10 μM to 0.0045 μM) and compound transfer was performed using the ECHO 550 (Labcyte, Sunnyvale, Calif.) into 96-well clear bottom, black-walled plates (Corning—Costar).
Approximately 2×10^3 SW480 colon cancer cells were seeded into each well and allowed to incubate in the presence or absence of compound for four days at 37° C./5% CO2. Eight replicates of DMSO-treated cells served as controls and cells treated with compound were performed in duplicate.
After incubation, 20 μL of CellTiter-Blue (Promega) was added to each well allowed to incubate for approximately 3 hours. This reagent was a buffered solution which contains resazurin, metabolically active cells were able to reduce rezarurin (blue) into resorufin (pink) which was highly fluorescent. This measured fluorescence was used as a readout for cell viability.
After incubation, the plates were read at Ex 560 nm Em 590 nm (Cytation 3, BioTek). Dose-response curves were generated and EC50 concentration values were calculated using non-linear regression curve fit in the GraphPad Prism (San Diego, Calif.) or Dotmatics' Studies Software (Bishops Stortford, UK). For EC50 of >10 μM, the percent inhibition at 10 μM is provided.
On the technique in general: Alamar Blue is a resazurin reagent that responds to reducing activity.

Assay [3] deals with primary human fibroblasts derived from IPF patients (LL29 cells) treated with TGF-β1. Kind of assay: Inhibition of the fibrotic process: αSMA staining in TGF-β1 treated primary human fibroblasts from IPF patients (LL29 cells). Particulars: Fibroblast, 96 h, TGF-β1 20 ng/mL, 4 days, % αSMA positive cells. An excerpt:
Representative compounds were screened using primary human fibroblasts (derived from IPF patients) treated with TGF-β1 to determine their ability to inhibit the fibrotic process.
Primary human fibroblasts derived from IPF patients (LL29 cells) [^1Xiaoqiu Liu, et. al., “Fibrotic Lung Fibroblasts Show Blunted Inhibition by cAMP Due to Deficient cAMP Response Element-Binding Protein Phosphorylation”, Journal of Pharmacology and Experimental Therapeutics (2005), 315(2), 678-687; ^2Watts, K. L., et. al., “RhoA signaling modulates cyclin D1 expression in human lung fibroblasts; implications for idiopathic pulmonary fibrosis”, Respiratory Research (2006), 7(1), 88] were obtained from American Type Culture Collection (ATCC) and expanded in F12 medium supplemented with 15% Fetal Bovine Serum and Penicillin/Streptomycin.
Each compound was dissolved in DMSO as a 10 mM stock and used to prepare compound source plates. Serial dilution (1:2, 11-point dose-response curves from 10 μM to 1.87 nM) and compound transfer was performed using the ECHO 550 (Labcyte, Sunnyvale, Calif.) into 384-well clear bottom assay plates (Greiner Bio-One) with appropriate DMSO backfill for a final DMSO concentration of 0.1%. LL29 cells are plated at 1,500 cells/well in 80 μL/well F12 medium supplemented with 1% Fetal Bovine Serum. One hour after addition of the cells, TGF-β1 (Peprotech; 20 ng/mL) was added to the plates to induce fibrosis (ref. 1 and 2 above). Wells treated with TGF-β1 and containing DMSO were used as controls. Cells were incubated at 37° C. and 5% CO2 for 4 days. Following incubation for 4 days, SYTOX green nucleic acid stain (Life Technologies [Thermo Fisher Scientific]) was added to the wells at a final concentration of 1 μM and incubated at room temperature for 30 min. Cells were then fixed using 4% formaldehyde (Electron Microscopy Sciences), washed 3 times with PBS followed by blocking and permeabilization using 3% Bovine Serum Albumin (BSA; Sigma) and 0.3% Triton X-100 (Sigma) in PBS. Cells were then stained with antibody specific to α-smooth muscle actin (αSMA; Abcam) (ref. 1 and 2 above) in 3% Bovine Serum Albumin (BSA; Sigma) and 0.3% Triton X-100 (Sigma) in PBS, and incubated overnight at 4° C. Cells were then washed 3 times with PBS, followed by incubation with Alexa Flor-647 conjugated secondary antibody (Life Technologies [Thermo Fisher Scientific]) and DAPI at room temperature for 1 hour. Cells were then washed 3 times with PBS and plates were sealed for imaging. αSMA staining was imaged by excitation at 630 nm and emission at 665 nm and quantified using the Compartmental Analysis program on the CellInsight CX5 (Thermo Scientific). Dead or apoptotic cells were excluded from analysis based on positive SYTOX green staining. % of total cells positive for αSMA were counted in each well and normalized to the average of 11 wells treated with TGF-β1 on the same plate using Dotmatics' Studies Software. The normalized averages (fold change over untreated) of 3 replicate wells for each compound concentration were used to create dose-responses curves and EC50 values were calculated using non-linear regression curve fit in the Dotmatics' Studies Software. For EC50 of >10 μM, the percent inhibition at 10 μM is provided.

Assay [4] concerns IL-6 (THP-1 cells). As to the kind of experiment: IL-6 inhibition in LPS-stimulated THP-1 human monocyte cells (HTRF). Particulars: LPS 500 ng/mL, 22 hours, IL6 HTRF. How it is done: Human monocyte cell line (THP-1 cells; Catalog # TIB-202, ATCC, Manassas, Va.) were cultured in Roswell Park Memorial Institute (RPMI) 1640 Medium (Catalog #21870-100, Buffalo, N.Y.) with 1% L-glutamine, 1% HEPES, 1% Sodium Pyruvate, 2% Sodium Bicarbonate supplemented with 100 units/mL penicillin, 50 μg/mL streptomycin, 2-mercaptoethanol (0.05 mM) [basal medium] and 10% fetal bovine serum (Catalog #16140089, Life Technologies, Carlsbad, Calif.) at 37° C. and 5% CO2.
THP-1 cells were cultured in basal media with 1% FBS for 24 hours before the start of the assay. Each compound was dissolved in DMSO as a 10 mM stock and used to prepare compound source plates. Serial dilution (1:3, 10-point dose-response curves starting from 10 μM) and compound transfer was performed using the ECHO 550 (Labcyte, Sunnyvale, Calif.) into 384-well white low volume assay plates (Greiner Bio-One) with appropriate DMSO backfill for a final DMSO concentration of 0.1%. THP-1 cells were plated at 5000 cells/well in the 384-well plates and incubated at 37° C. for 2 h. 500 ng/mL of LPS was added after 2 hours and cells were incubated for another 22 hours at 37° C. Plates were spun in a centrifuge for 1 minute at […] and a mixture of anti-IL6 XL665, and anti-IL6 Cryptate diluted in reconstitution buffer (Cisbio Inc.) was added to each well. Following incubation for 3 hrs at room temperature, Homogeneous Time-Resolved Fluorescence (HTRF) was measured using the Envision (Perkin Elmer) at 665 nm and […]. The ratio of fluorescence at 665 nm to 620 nm was used as a readout for IL6 quantification. All samples were processed in duplicate. Readings were normalized to DMSO treated cells and normalized activities were utilized for EC50 calculations using the dose-response log (inhibitor) vs. response-variable slope (four parameters) nonlinear regression feature available in GraphPad Prism 5.0 (or Dotmatics). For EC50 of >10 μM, the percent inhibition at 10 μM is provided.

Turning to `CC(C)CC(=O)Nc1cncc(-c2ccc3[nH]nc(-c4cc5c(N6CCN(C)CC6)cccc5[nH]4)c3n2)c1` [Compound 226, 3-Methyl-N-(5-(3-(4-(4-methylpiperazin-1-yl)-1H-indol-2-yl)-1H-pyrazolo [4,3-b]pyridin-5-yl)pyridin-3-yl)butanamide], the concentration for a half-maximal effect (EC50) in assay [1] stood at 2140 nM; in assay [2], 1930 nM; in assay [3], 2550 nM; in assay [4], 359 nM.

On to `CN1CCN(c2cccc3[nH]c(-c4n[nH]c5ccc(-c6cncc(CN7CCCCC7)c6)nc45)cc23)CC1` [Compound 239, 3-(4-(4-Methylpiperazin-1l-yl)-1H-indol-2-yl)-5-(5-(piperidin-1-ylmethyl)pyridin-3-yl)-1H-pyrazolo[4,3-b]pyridine], for which the inhibition at 10 µM in assay [1] is 5%. In addition, the EC50 in assay [1] was above 10000 nM; in assay [2] it was 9360 nM; in assay [3] it was 4980 nM; in assay [4], 1190 nM.

For the compound `CN1CCN(c2cccc3[nH]c(-c4n[nH]c5ccc(-c6cncc(NC(=O)CC(C)(C)C)c6)nc45)cc23)CC1` [Compound 240, 3,3-Dimethyl-N-(5-(3-(4-(4-methylpiperazin-1-yl)-1H-indol-2-yl)-1H-pyrazolo[4,3-b]pyridin-5-yl)pyridin-3-yl)butanamide], the concentration giving a half-maximal response (EC50) in assay [1] stood at 2980 nM; in assay [2], 1840 nM; in assay [3] it was 1750 nM; in assay [4], 244 nM.

As for `Cc1ccncc1-c1ccc2[nH]nc(-c3cc4ccccc4[nH]3)c2n1` [Compound 257, 3-(1H-Indol-2-yl)-5-(4-methylpyridin-3-yl)-1H-pyrazolo[4,3-b]pyridine], the EC50 in assay [1] came to 3690 nM; in assay [2], 8060 nM; in assay [3], 4640 nM; in assay [4] it was 17 nM.

In the case of `O=C(Nc1cncc(-c2ccc3[nH]nc(-c4cc5c(-c6cccs6)cccc5[nH]4)c3n2)c1)c1ccccc1` [Compound 347, N-(5-(3-(4-(Thiophen-2-yl)-1H-indol-2-yl)-1H-pyrazolo[4,3-b]pyridin-5-yl)pyridin-3-yl)benzamide], in assay [1], the inhibition at 10 µM came to 35.8%. In addition, the EC50 in assay [1] was above 10000 nM; in assay [2], 6080 nM; in assay [3], 446 nM; in assay [4] it was 1070 nM.

As to `CN(C)Cc1cncc(-c2ccc3[nH]nc(-c4cc5c(-c6cccs6)cccc5[nH]4)c3n2)c1` [Compound 349, N,N-Dimethyl-1-(5-(3-(4-(thiophen-2-yl)-1H-indol-2-yl)-1H-pyrazolo[4,3-b]pyridin-5-yl)pyridin-3-yl)methanamine], the EC50 was found to be 8280 nM in assay [1], 2840 nM in assay [2], 1270 nM in assay [3] and 137 nM in assay [4].

With `c1csc(-c2cccc3[nH]c(-c4n[nH]c5ccc(-c6ccncc6)nc45)cc23)c1` [Compound 354, 5-(Pyridin-4-yl)-3-(4-(thiophen-2-yl)-1H-indol-2-yl)-1H-pyrazolo[4,3-b] pyridine], the EC50 in assay [1] came to 3600 nM; in assay [2], 4120 nM; in assay [3], 1460 nM; in assay [4], 1420 nM.

Take `CN(C)CCNc1cc(F)cc(-c2cccc3[nH]c(-c4n[nH]c5ccc(-c6cncc(NC(=O)Cc7ccccc7)c6)nc45)cc23)c1` [Compound 458, N-(5-(3-(4-(3-((2-(Dimethylamino)ethyl)amino)-5-fluorophenyl)-1H-indol-2-yl)-1H-pyrazolo[4,3-b]pyridin-5-yl)pyridin-3-yl)-2-phenylacetamide]: the half-maximal effective concentration (EC50) in assay [1] worked out at 1030 nM; in assay [2] it was 970 nM; in assay [3], 1860 nM; in assay [4], 1460 nM.

Turning to `CC(C)(C)CC(=O)Nc1cncc(-c2ccc3[nH]nc(-c4cc5c(-c6cc(F)cc(CNS(C)(=O)=O)c6)cccc5[nH]4)c3n2)c1` [Compound 492, N-(5-(3-(4-(3-Fluoro-5-(methylsulfonamidomethyl)phenyl)-1H-indol-2-yl)-1H-pyrazolo[4,3-b]pyridin-5-yl)pyridin-3-yl)-3,3-dimethylbutanamide], the EC50 stood at 292 nM in assay [1], 1060 nM in assay [2], 345 nM in assay [3] and 261 nM in assay [4].

In general, EC50 refers to the concentration at which the effect is half-maximal. Broadly, the inhibition is the percentage by which the read-out fell short of the control.
